These compounds were tested against T1, human GPR40 (Homo sapiens, UniProt O14842) (assay: Inositol Phosphate Turnover (IP1) Assay 3). Conditions: HEK cells stably expressing human GPR40.
T1 construct: expressed in transfected cells; host or cells: HEK cells stably expressing the aequorin reporter
Assay type: cell-based
Experimental: Human and mouse GPR40 stable cell-lines were generated in CHO cells stably expressing NFAT BLA (Beta-lactamase). A human GPR40 stable cell-line was generated in HEK cells stably expressing the aequorin expressing reporter. The expression plasmids were transfected using lipofectamine (Life Technologies) following manufacturer's instructions. Stable cell-lines were generated following drug selection.
Inositol Phosphate Turnover (IP1) Assay 3:
The assay was performed in 384-well format. HEK cells stably expressing human GPR40 were plated at 7500 cells per well in growth medium (DMEM/10% fetal calf serum). Cell plates were then incubated 16 hours at 37 degrees in a 5% CO2 incubator.
Measurement of Inositol Phosphate Turnover (IP) was performed using the CisBio IP-One kit (Part number 62IPAPEB). After the 16 hour incubation, the growth media was removed by centrifugation using the BlueWasher (AusWasher GUI Ver. v1.0.1.8) Protocol #21—“Light Dry” and 10 ul of stimulation buffer (prepared as described in the kit) was added to each well. In a separate plate, compounds were diluted in DMSO (200-fold over the final concentration in the assay well) and 50 nl was acoustically transferred to the appropriate well in the assay cell plate. The plates were then incubated for 60 minutes at 37 degrees in a 5% CO2 incubator. 10 ul of detection buffer (also prepared as described in the IP-One kit) was added to each well and the plates were incubated at rt for 60 minutes in the dark. The plates were then read in a Perkin Elmer EnVision or equivalent reader able to measure FRET. Fluorescent ratio of emission at 665 and 620 nm was then converted to IP1 concentration by back calculating from an IP1 standard curve prepared at the time of the assay. Data is normalized to % activity using a reference compound and EC50s determined using a standard 4-parameter fit.

T1 sequence (O14842 whole entry): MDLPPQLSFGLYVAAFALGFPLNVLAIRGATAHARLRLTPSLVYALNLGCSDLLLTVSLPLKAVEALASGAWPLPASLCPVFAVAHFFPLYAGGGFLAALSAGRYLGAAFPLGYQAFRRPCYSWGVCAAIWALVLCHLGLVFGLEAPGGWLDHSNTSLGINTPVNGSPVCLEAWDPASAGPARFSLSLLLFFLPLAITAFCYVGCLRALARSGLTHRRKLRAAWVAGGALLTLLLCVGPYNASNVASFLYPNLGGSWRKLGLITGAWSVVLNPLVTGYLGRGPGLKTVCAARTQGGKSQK

Row | SMILES | EC50 [nM]
1 | COc1cc(-c2ccc(C3CCc4ccc([C@H](C5CCC5)[C@H](C)C(=O)O)cc4O3)cc2CN2CCCC2(C)C)c(F)cn1 (single isomer, unassigned) [Example 109] | 0.1
2 | CCN(CC)Cc1cc(C2CCc3ccc([C@H](C4CC4)[C@H](C)C(=O)O)cc3O2)ccc1-c1cc(OC)ncc1C#N (mixture of isomers) [Example 197] | 2.9
3 | COc1cc(-c2ccc(C3CCc4ccc([C@H](C5CC5)[C@H](C)C(=O)O)cc4O3)c(CN(C(C)C)C(C)C)c2)ccn1 (mixture of isomers) [Example 115] | 0.1
4 | CCN(Cc1cc(C2CCc3ccc([C@H](C4CC4)[C@H](C)C(=O)O)cc3O2)ccc1-c1cc(OC)ncc1F)C(C)(C)C (stereo partly shown) [Example 228] | 0.12
5 | COc1cc(-c2ccc(C3CCc4ccc([C@H](C5CCC5)[C@H](C)C(=O)O)cc4O3)cc2CN2CCCC2C)c(F)cn1 (single isomer, unassigned) [Example 100] | 0.14
6 | COc1cc(-c2ccc(C3CCc4ccc([C@H](C5CC5)[C@H](C)C(=O)O)cc4O3)c(CN3[C@H](C)CC[C@H]3C)c2)c(F)cn1 (stereo partly shown) [Example 127] | 0.2
7 | COc1cc(-c2ccc(C3CCc4ccc([C@H](C5CC5)[C@H](C)C(=O)O)c(F)c4O3)cc2CN2[C@H](C)CC[C@H]2C)c(F)cn1 (single isomer, unassigned) [Example 209] | 0.5
8 | COc1cc(-c2ccc(C3CCc4ccc([C@H](C5CCC5)[C@H](C)C(=O)O)cc4O3)cc2CN2CCCCC23CC3)c(F)cn1 (single isomer, unassigned) [Example 107] | 0.1
9 | COc1cc(-c2ccc(C3CCc4ccc([C@H](C5CC5)[C@H](C)C(=O)O)c(F)c4O3)cc2CN2[C@H](C)CC[C@H]2C)c(F)cn1 (single isomer, unassigned) [Example 208] | 0.73
10 | CCN(C(C)C)C(C)c1cc(C2CCc3ccc([C@H](C4CC4)[C@H](C)C(=O)O)cc3O2)ccc1-c1ccnc(OC)c1 (single isomer, unassigned) [Example 247] | 1.3
11 | COc1cc(-c2ccc(C3CCc4ccc([C@H](C5CCC5)[C@H](C)C(=O)O)cc4O3)cc2CN2CCCCC2)c(F)cn1 (single isomer, unassigned) [Example 105] | 0.1
12 | COc1cc(-c2ccc(C3CCc4ccc([C@H](C5CC5)[C@H](C)C(=O)O)cc4O3)cc2CN2C(C)(C)CCCC2(C)C)c(F)cn1 (stereo partly shown) [Example 230] | 0.09
13 | CCN(C)Cc1cc(C2CCc3ccc([C@H](C4CC4)[C@H](C)C(=O)O)cc3O2)ccc1-c1cc(OC)ncc1F (stereo partly shown) [Example 253] | 0.9
14 | COc1cc(-c2ccc(C3CCc4ccc([C@H](C5CC5)[C@H](C)C(=O)O)cc4O3)c(CN(C(C)C)C(C)C)c2)c(F)cn1 (mixture of isomers) [Example 126] | 0.1
15 | COCC(c1cc([C@H]2CCc3ccc([C@H](C4CC4)[C@H](C)C(=O)O)cc3O2)ccc1-c1ccnc(OC)c1)N1CCCC1 (mixture of isomers) [Example 179, (2S, 3R)-3-cyclopropyl-3-((2R)-2-(3-(2-methoxy-1-(pyrrolidin-1-yl)ethyl)-4-(2-methoxypyridin-4-yl)phenyl)chroman-7-yl)-2-methylpropanoic acid] | 17
16 | CCN(Cc1cc(-c2cc(OC)ncc2F)ccc1C1CCc2ccc([C@H](C3CC3)[C@H](C)C(=O)O)cc2O1)C(C)C (single isomer, unassigned) [Example 124b] | 16
17 | COc1cc(-c2ccc([C@H]3CCc4ccc([C@H](C5CC5)[C@H](C)C(=O)O)cc4O3)cc2CN2C[C@H]3C[C@H]3C2)c(F)cn1 [Example 138] | 0.3

Row | SMILES | EC50 [nM]
18 | COc1cc(-c2ccc(C3CCc4ccc([C@H](C5CC5)[C@H](C)C(=O)O)cc4O3)c(CN(C)C(C)(C)C)c2)ccn1 (single isomer, unassigned) [Example 114a] | 1.5
19 | COc1cc(-c2ccc([C@@H]3CCc4ccc([C@H](C5CC5)[C@H](C)C(=O)O)cc4O3)cc2CN(C(C)C)C(C)C)ccn1 [Example 284, Sodium (2S,3R)-3-cyclopropyl-3-((S)-2-(3-((diisopropylamino)methyl)-4-(2-methoxypyridin-4-yl)phenyl)chroman-7-yl)-2-methylpropanoate] | 0.3
20 | CCN(Cc1cc([C@H]2CCc3ccc([C@H](C4CC4)[C@H](C)C(=O)O)cc3O2)ccc1-c1cc(OC)ncc1F)C(C)C [Example 139] | 0.5
21 | COc1cc(-c2ccc(C3CCc4ccc([C@H](C5CC5)[C@H](C)C(=O)O)cc4O3)cc2CN2CCCC3(CC3)C2)ccn1 (stereo partly shown) [Example 277] | 1.9
22 | CCN(Cc1cc(-c2ccnc(OC)c2)ccc1C1CCc2ccc([C@H](C3CC3)[C@H](C)C(=O)O)cc2O1)C(C)C (single isomer, unassigned) [Example 113b] | 14
23 | COc1cc(-c2ccc(C3CCc4ccc([C@H](C5CC5)[C@H](C)C(=O)O)cc4O3)cc2CN2CCCC2)ccn1 (stereo partly drawn) [Example 175, (2S, 3R)-3-cyclopropyl-3-(2-(4-(2-methoxypyridin-4-yl)-3-(pyrrolidin-1-ylmethyl)phenyl)-chroman-7-yl)-2-methylpropanoic acid] | 53
24 | CCOc1cc(-c2ccc(C3CCc4ccc([C@H](C5CC5)[C@H](C)C(=O)O)cc4O3)c(CN(C)C(C)(C)C)c2)c(F)cn1 (mixture of isomers) [Example 132] | 4.8
25 | COc1cc(-c2ccc(C3CCc4ccc([C@H](C5CC5)[C@H](C)C(=O)O)c(F)c4O3)cc2CN2CCCCC23CC3)c(F)cn1 (single isomer, unassigned) [Example 202] | 0.16
26 | CCN(Cc1cc(-c2cc(OC)ncc2F)ccc1C1CCc2ccc([C@H](C3CC3)[C@H](C)C(=O)O)cc2O1)C(C)C (single isomer, unassigned) [Example 124a] | 0.09
27 | CCN(CC)Cc1cc(C2CCc3ccc([C@H](C4CC4)[C@H](C)C(=O)O)cc3O2)c(F)cc1-c1ccnc(OC)c1 (single isomer, unassigned) [Example 181] | 14
28 | CCOc1cc(-c2ccc(C3CCc4ccc([C@H](C5CC5)[C@H](C)C(=O)O)cc4O3)c(CN3CCC[C@@H]3C)c2)c(F)cn1 (single isomer, unassigned) [Example 133] | 0.8
29 | COc1cc(-c2ccc(C3CCc4ccc([C@H](C5CC5)[C@H](C)C(=O)O)cc4O3)cc2CN2CCC3CC32)c(F)cn1 (stereo partly shown) [Example 252] | 0.7
30 | COc1cc(-c2ccc(C3CCc4ccc([C@H](C5CC5)[C@H](C)C(=O)O)c(F)c4O3)cc2CN2CCCCC2)c(F)cn1 (single isomer, unassigned) [Example 200] | 1.5
31 | COc1cc(-c2ccc(C3CCc4ccc([C@H](C5CCC5)[C@H](C)C(=O)O)cc4O3)cc2CN2[C@H](C)CC[C@H]2C)c(F)cn1 (single isomer, unassigned) [Example 96] | 0.06
32 | COc1cc(-c2ccc(C3CCc4ccc([C@H](C5CC5)[C@H](C)C(=O)O)cc4O3)c(CN3CCCC[C@H]3C)c2)ccn1 (single isomer, unassigned) [Example 120b] | 41
33 | COc1cc(-c2ccc(C3CCc4ccc([C@H](C5CC5)[C@H](C)C(=O)O)cc4O3)cc2CN2CCCC3(CC3)C2)c(F)cn1 (stereo partly shown) [Example 260] | 0.9
34 | COc1cc(-c2cc(F)c(C3CCc4ccc([C@H](C5CC5)[C@H](C)C(=O)O)cc4O3)cc2CN(C(C)C)C(C)C)ccn1 (single isomer, unassigned) [Example 184] | 0.73

Source: patent US10968193B2, “Antidiabetic bicyclic compounds” (Merck Sharp & Dohme Corp., priority 2014, dated 2021)
